Test results taken from patent US9307761B2, “Microbial composition” (Rohm and Haas Company, priority 2011, dated 2016).
Where two headings read alike, the source gives them in different places.

What was measured:
Assay type in all cases: cell-based
[1] = system: Escherichia coli (E. coli—ATCC #10536); assay: Automated assessment of efficacy in model surfactant medium (2.85% sodium cocoyl glycinate and 1.85% sodium lauroamphoacetate), 15 seconds exposure, delta OD450/OD590; conditions: for No. of replicates showing growth (out of 4) / Δ OD 450 nm = OD450 (time = 16 hours) − OD450 (time zero), Mean / Δ OD 590 nm OD590 (time = 16 hours) − OD590 (time zero), Mean: model surfactant solution, 15 s exposure; for MBC: Escherichia coli, ATCC10536, 15 s, in 2.85% sodium cocoyl glycinate + 1.85% sodium lauroamphoacetate solution at pH 10, E. coli, read-out: MBC (minimum biocidal concentration)
Experimental: Micobiocidal Activity of Actives as Per the Invention in a Model Surfactant Medium Test Methodology for Automated Assessment of Efficacy in Surfactant Base
Solutions were prepared such that the concentrations of the surfactant components and test actives were 1.1×the final desired concentration in order to allow for dilution with the bacterial inoculum in the test. The solutions were manually adjusted to […] by dropwise addition of sodium hydroxide solution, as measured with a pH meter at ambient temperature.
Tests were conducted using standard microtiter plate assays using an automated liquid handling system, 270 μl of the surfactant test solution was pipetted into each well of the microtitre plate and 30 μl of the bacterial suspension was then added. After exactly 15 seconds of bacterial exposure, a 30 μl volume of bacterial cells was withdrawn and transferred to 270 μl of D/E quench solution. After 5 minutes in the D/E quench, the optical density (OD) was measured for each plate in turn at two specific wavelengths (450 nm and 590 nm). These provide a dual check of antimicrobial activity, as the OD450 reading is specific for the yellow colour of D/E quench when bacterial growth is observed, whereas OD590 is specific for the initial purple colour of the D/E quench which is retained if no bacterial growth is observed. After the time zero OD measurements, plates were then incubated at 37° C. overnight (16 hours) before repeating the OD measurements. Delta OD values were calculated by subtracting […]. Bacterial growth is observed as art increase in OD450 and a decrease in ΔOD590. To identify antibacterially efficacious systems (those preventing appreciable bacterial growth after incubation), the following threshold changes in OD readings have been adopted: if (1). OD450 increases by less than 0.2 absorbance unit on incubation and (2). OD590 decreases by less than 0.35 unit on incubation. Conversely, where OD450 increases by more than 0.2 AU and OD590 decreases by more than 0.35 unit after incubation, corresponding to a colour shift from purple to yellow, the test system allows bacterial growth and is not deemed efficacious, four replicate measurements in the same plate have been made for each test system. The number of replicate wells showing either bacterial growth or no growth is also readily assessed by eye by following the colour change.
Dose responses for individual components and binary mixtures of actives at a fixed concentration ratio were generated by sequential dilution of liquors with further surfactant solution to obtain a series of endpoints.
In some selected cases, the combinations were also tested at the weight ratio 1:1.

[2] = system: Escherichia coli (10536 strain); assay: 15 seconds contact kill assay of actives in water, mean bacterial survival NMBS; conditions: for NMBS: alone, 15 seconds contact
[3] = system: Escherichia coli (E. coli—ATCC #10536); assay: Synergy tests: high resolution MBC microtiter plate assay, 15 seconds contact, phosphate buffer containing […] dipropylene glycol; conditions: for MBC of the component acting alone (QA or QB): complete kill in 15 seconds
Text: The concentrations and ratios may also vary under different test conditions or with different test methods.
One measure of synergy is the industrially accepted method described by Kull, F. C.; Eisman, P. C.; Sylwestrowicz, H. D. and Mayer, R. L., in Applied Microbiology 9:538-541 (1961), using the ratio determined by the formula: Qa/QA+Qb/QB=Synergy Index (“SI”) wherein: • QA=concentration of compound A (first component) in percent, acting alone, which produced an end point (MBC of Compound A). • Qa=concentration of compound A in percent, in the mixture, which produced an end point. • QB=concentration of compound B (second component) in percent, acting alone, which produced an end point (MBC of Compound B). • Qb=concentration of compound B in percent, in the mixture, which produced an end point.
When the sum of Qa/QA and Qb/QB is greater than one, antagonism is indicated. […] The lower the SI, the greater is the synergy shown by that particular mixture. The minimum biocidal concentration (MBC) of a microbicide is the lowest concentration tested under a specific set of conditions that provides complete kill of the tested microorganisms.
Synergy tests were conducted using standard microtiter plate assays with phosphate buffer containing 3.5% dipropylene glycol (DPG). In this method, a wide range of combinations of chemicals was tested by conducting high resolution MBC assays of Component (A) in the presence of various concentrations of Component (B). High resolution MBCs were determined by adding varying amounts of microbicide to one column of a microtiter plate and doing subsequent […] dilutions using an automated liquid handling system to obtain a series of closely spaced endpoints. The MBC plate was inoculated one column at a time with the test microorganism. An aliquot of the inoculated well was transferred at 15 seconds to a plate containing a neutralizing agent (D/E Neutralizing Broth), mixed and held for 5 minutes before being transferred to a growth plate containing trypticase soy broth (TSB). The TSB plate was incubated at 37° C. and read for the presence/absence of growth at 24 hours. The lowest level tested that provided complete kill (as evidenced by no growth in the microtitre plate) of the test organisms in 15 seconds is the minimum biocidal concentration (MBC).
The synergy of the combinations of the present invention was determined against a bacterium, Escherichia coli (E. coli—ATCC #10536), at a concentration of approximately 1×10^8 bacteria, per mL. This microorganism is representative of natural contaminants in many consumer and industrial applications.

[4] = single active alone at 0.1% w/v
[5] = single active alone at 0.2% w/v
[6] = E. coli 10536, at Qa and Qb, <1 synergy, 1 additivity, >1 antagonism
[7] = single active alone at 0.3% w/v

Compound	No. of replicates showing growth (out of 4) [1, 4]	Δ OD 450 nm = OD450 (time = 16 hours) − OD450 (time zero), Mean [1, 4]	Δ OD 590 nm OD590 (time = 16 hours) − OD590 (time zero), Mean [1, 4]	No. of replicates showing growth (out of 4) [1, 5]	Δ OD 450 nm = OD450 (time = 16 hours) − OD450 (time zero), Mean [1, 5]	Δ OD 590 nm OD590 (time = 16 hours) − OD590 (time zero), Mean [1, 5]	No. of replicates showing growth (out of 4) ([1]; single active alone at […] w/v)	Δ OD 450 nm = OD450 (time = 16 hours) − OD450 (time zero), Mean ([1]; single active alone at […] w/v)	Δ OD 590 nm OD590 (time = 16 hours) − OD590 (time zero), Mean ([1]; single active alone at […] w/v)	SI (Synergy Index = Qa/QA + Qb/QB) [3, 6]	also measured
CCCCc1ccc(O)cc1 [4-butylphenol]	4	−0.61	0.53	4	−0.54	0.58	4	−0.58	0.54	–	–
Cc1cc(O)ccc1C(C)C [4-isopropyl-3-methylphenol]	–	–	–	–	–	–	4	−1.53	0.23	–	–
CCCCc1ccc(O)cc1 [4-n-butyl phenol]	–	–	–	–	–	–	–	–	–	–	MBC of phenolic compound ([2]; phenolic compound alone, complete bacterial kill against E. coli): 0.25 % (w/v)
CCCCc1ccc(O)cc1 [4-n-butylphenol]	–	–	–	–	–	–	–	–	–	–	NMBS ([2]; 0.0125% w/v, E. coli): 7.85 log CFU/ml; MBC (minimum biocidal concentration) ([2]; E. coli, in water, component alone): 0.25 % w/v; NMBS ([2]; […] w/v, E. coli): 0 log CFU/ml; MBC [1]: > 2000 µg/mL; MBC of the component acting alone (QA or QB) ([3]; E. coli 10536): 0.2 weight %
CCCc1ccc(O)cc1 [4-propylphenol]	4	−1.59	0.34	4	–	–	4	–	–	1.00	–
CCC(C)c1ccc(O)cc1 (stereo not drawn) [4-sec-butylphenol]	–	–	–	–	–	–	–	–	–	1.00	–
Cc1ccc(C(C)C)cc1O [5-isopropyl-2-methylphenol]	4	−0.52	0.62	4	−0.52	0.62	4	–	–	–	SI (Synergy Index = Qa/QA + Qb/QB) [3]: 1.00
C/C=C/c1ccccc1O [(E)-2-(prop-1-enyl)phenol]	4	−0.60	0.59	4	−0.53	0.63	4	−0.57	0.58	1.00	MBC of the component acting alone (QA or QB) ([3]; E. coli 10536): 0.8 weight %
C=C(C)[C@@H]1CC=C(CO)CC1 [(S)-(−) perillyl alcohol]	–	–	–	4	−1.44	0.36	1	−0.18	0.19	–	No. of replicates showing growth (out of 4) [1, 7]: 4; Δ OD 450 nm = OD450 (time = 16 hours) − OD450 (time zero), Mean [1, 7]: −1.15; Δ OD 590 nm OD590 (time = 16 hours) − OD590 (time zero), Mean [1, 7]: 0.56
CC1CCC(CO)C(C)C1 (stereo not drawn) [dihydrofloralol, 2,4-Dimethylcyclohexylmethanol]	–	–	–	4	−1.39	0.41	–	–	–	–	NMBS ([2]; 0.3% w/v, E. coli): 6.18 log CFU/ml; NMBS ([2]; 0.4% w/v, E. coli): 3.97 log CFU/ml; NMBS ([2]; 0.5% w/v, E. coli): 0.00 log CFU/ml; MBC [1]: 4000 µg/mL
